Measured values reported in patent publication EP0437367A2, “Compositions and methods for inhibiting osteoclast cellular adhesion to bone” (MERCK & CO. INC., priority 1990, dated 1991).
Bridge positions count the residues as written; N and C are the ends.

Experiments:
Assay type in all cases: cell-based
chicken osteoclasts [1] = experiment: resorption by chicken osteoclasts, release of 3H proline from labelled bone particles
Protocol: Osteoclasts from the long bones of egg laying hens were isolated by the methods of Zambonin Zallone et al. (1989) and Blair et al., J. Cell Biol. 102: 1164-1172 (1986). Medullary bone was harvested with scalpels from split femora and tibiae of laying hens (Dekalb XL) that were on a Ca deficient diet (5070C- 9, Purina Mills Inc., St. Louis) for 3-6 wks. After washing in PBS 4°C, the suspension was pressed through a 110 um nylon mesh and then osmotically shocked in 0.2% NaCl for 3 min 37°C to lyse red blood cells. The cells were collected at 350xg (5 min, 4°C), and osteoclasts were sedimented through 70% serum for 90 min at 4°C in 50 ml tubes (Fisher). The bottom 5 ml was then layered over a 3 step (1.073, 1.099, 1.143 g/cm³) Nycodenz gradient (Accurate, Ct) and spun at 350xg, 20 min, 4°C. […] Cells excluding trypan blue (Gibco) were immediately counted on a hemocytometer (Fisher) and aliquoted at 1-2x 10⁶ total cells (not counting red blood cells)/ well of 48 well plates (Costar), no. […]
Therefore, for 1 day resorption experiments, unlabelled bone particles (50 ug, <20 um fraction) were first added to chicken cells at day 3 followed by labelled bone (100 ug, 20- 53 um) plus test compounds (Merck) at day 5. Alternatively, labelled bone (100 ug) plus compounds were added at day 3 and the media counted at day 6 with a LKB liquid scintillation counter. […]

rat osteoclasts [2] = target: T1, rat osteoclasts (Rattus norvegicus, UniProt F1LZX9+Q8R2H2); experiment: bone slice resorption assay with rat osteoclasts; details: range 1pM- 10 uM, P>0.07, Graph 3a
T1 sequence (F1LZX9 31-1043): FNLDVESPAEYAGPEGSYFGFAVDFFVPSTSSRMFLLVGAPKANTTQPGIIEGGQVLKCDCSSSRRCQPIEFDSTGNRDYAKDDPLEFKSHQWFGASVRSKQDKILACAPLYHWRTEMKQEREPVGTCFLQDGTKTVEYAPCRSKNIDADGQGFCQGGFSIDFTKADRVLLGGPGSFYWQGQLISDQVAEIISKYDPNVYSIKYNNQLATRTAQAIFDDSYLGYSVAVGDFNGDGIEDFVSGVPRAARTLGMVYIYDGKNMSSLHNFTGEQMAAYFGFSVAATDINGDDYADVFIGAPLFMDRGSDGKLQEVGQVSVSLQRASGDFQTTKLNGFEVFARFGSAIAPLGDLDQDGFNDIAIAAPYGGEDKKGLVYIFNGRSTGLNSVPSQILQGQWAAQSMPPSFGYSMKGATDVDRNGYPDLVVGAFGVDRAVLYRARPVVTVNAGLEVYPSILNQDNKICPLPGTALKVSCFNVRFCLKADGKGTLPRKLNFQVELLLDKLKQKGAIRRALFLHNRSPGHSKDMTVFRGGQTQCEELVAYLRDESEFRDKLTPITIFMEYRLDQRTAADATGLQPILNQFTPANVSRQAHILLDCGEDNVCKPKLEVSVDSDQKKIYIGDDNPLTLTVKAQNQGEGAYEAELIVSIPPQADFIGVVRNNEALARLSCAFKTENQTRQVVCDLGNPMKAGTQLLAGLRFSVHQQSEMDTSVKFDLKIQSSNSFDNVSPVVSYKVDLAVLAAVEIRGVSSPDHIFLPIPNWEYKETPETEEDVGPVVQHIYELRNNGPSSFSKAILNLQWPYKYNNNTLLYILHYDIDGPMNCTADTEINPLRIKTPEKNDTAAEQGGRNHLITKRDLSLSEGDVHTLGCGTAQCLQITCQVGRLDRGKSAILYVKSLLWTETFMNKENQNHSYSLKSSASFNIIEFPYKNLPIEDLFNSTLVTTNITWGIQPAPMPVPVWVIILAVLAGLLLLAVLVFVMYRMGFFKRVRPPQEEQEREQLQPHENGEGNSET
T1 sequence (Q8R2H2 26-787): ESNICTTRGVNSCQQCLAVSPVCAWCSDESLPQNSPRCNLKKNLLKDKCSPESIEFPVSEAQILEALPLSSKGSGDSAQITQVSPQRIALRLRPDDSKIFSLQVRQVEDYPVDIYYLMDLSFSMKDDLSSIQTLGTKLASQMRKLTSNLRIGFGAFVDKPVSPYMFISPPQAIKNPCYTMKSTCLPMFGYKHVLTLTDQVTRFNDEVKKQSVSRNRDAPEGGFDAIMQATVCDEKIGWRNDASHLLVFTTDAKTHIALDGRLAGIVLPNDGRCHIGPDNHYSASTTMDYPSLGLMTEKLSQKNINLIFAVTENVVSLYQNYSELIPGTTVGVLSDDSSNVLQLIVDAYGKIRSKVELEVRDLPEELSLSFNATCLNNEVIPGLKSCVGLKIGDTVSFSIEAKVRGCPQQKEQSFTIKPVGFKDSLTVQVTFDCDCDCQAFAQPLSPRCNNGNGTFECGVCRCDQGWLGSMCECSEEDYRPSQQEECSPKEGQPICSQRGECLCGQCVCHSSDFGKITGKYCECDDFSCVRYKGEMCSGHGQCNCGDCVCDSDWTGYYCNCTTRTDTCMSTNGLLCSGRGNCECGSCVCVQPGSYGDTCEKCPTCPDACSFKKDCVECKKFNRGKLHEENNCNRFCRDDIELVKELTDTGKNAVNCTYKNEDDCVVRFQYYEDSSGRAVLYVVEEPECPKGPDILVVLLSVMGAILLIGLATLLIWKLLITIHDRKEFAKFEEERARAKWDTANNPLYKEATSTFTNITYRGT
Protocol: Osteoclasts, large multinucleated cells up to 400 microns in diameter and with abundant acidophilic cytoplasm which function in the absorption and removal of osseous tissue, use the integrin receptor to bind bone as part of the mechanism of bone resorption. […] Based on the release of [³H] proline from labelled bone particles, the IC₅₀ of chicken osteoclast resorption was 100 nM. By comparison, the RGDS synthetic tetrapeptide inhibited rat or chicken resorption with an IC₅₀ of 0.1 mM. Attachment experiments with chicken osteoclasts and bone particles labelled with [³H] proline confirmed that the mechanism of action of echistatin is to inhibit osteoclast binding to bone. Echistatin induces the retraction of osteoclast lamellipodia in a manner reminiscent of 1 nM calcitonin or 1 uM prostaglandin E₂.
Osteoclasts were isolated from the long bones of 1-3 day old rats as described by Chambers et al., J. Cell Sci. 66: 383-399 (1984). […]
Resorption of rat and some chicken osteoclasts was measured by using bone slices (4.4 x 4.4 x 0.2 mm) from the diaphysis of bovine femur (Isomet, Buehler Ltd., Lake Bluff, IL) which were cut with a low speed diamond saw as described by Arnett and Dempster, 1986. […] Resorption pits were quantitated by reflected light microscopy with crossed polarizers and rotatable lambda/4 plate (Sato and Grasser, J. Bone Min. Res. in press).

chicken osteoclasts [3] = experiment: attachment assay of 3H proline labelled bone particles to chicken osteoclasts; details: chicken osteoclasts after 5-6 days culture
Protocol: Attachment of ³H proline labelled bone particles (20- 53 um) was followed with time by assaying free and bound pools. Chicken osteoclasts in 48 well plates were given 100 ug of labelled bone particles. Free was defined as particles liberated by 3x swirling of cultures with media. Bound was defined as particles liberated after 6 hr incubation and 2x swirling in 1N NaOH. All cells were completely disrupted by the latter treatment. Samples were then ashed in a Packard 306 oxidizer (Camberra Inst., NJ) and counted (LKB).
Free end bound particles of bone labelled with [³H] proline were assayed as a function of incubation time with chicken osteoclasts after 5-6 days culture at 37°C. […] At this echistatin concentration, resorption was inhibited by 40% with little effect on osteoclast morphology.

rat osteoclasts [4] = target: T1, rat osteoclasts; experiment: retraction of lamellipodia of rat osteoclasts
Description: Osteoclasts were isolated from the long bones of 1-3 day old rats as described by Chambers et al., J. Cell Sci. 66: 383-399 (1984). Femora, tibiae and humera were dissected clean of soft tissue, split and scrapped with scalpels into 199 media pH 7-7.2 + 10% heat inactivated fetal calf serum + 100 U/ml antibiotics (penicillin G, steptomycin, amphotericin B, Gibco, New York). After gentle pipetting 60x with a wide bore pipette, the cell suspension was passed through a 110 um nylon mesh (Spectra) and aliquoted onto plastic dishes (Costar, Cambridge, MA), No. 1 coverslips (Corning, New York), glass cuvettes (Herminus) or bone slices (Arnett and Dempster, Endocrinology 120: 602-608 (1987)). All experiments with rat osteoclast cultures were conducted within the first 24 hr after isolation.
Rat or chicken osteoclasts were incubated with different concentrations of RGDS, echistatin and Ala²⁴ echistatin. All of these peptides induced morphological changes but rat osteoclasts 1 day after isolation on glass retracted lamellipodia at 10⁵x lower concentrations of echistatin (4.3 nM) compared to RGDS peptide. […] At these concentrations, extension/retraction and ruffling motility of the lamellipodia increased. […]

For Ala²⁴ echistatin, the “effects on the resorption activity” value (chicken osteoclasts [1]; range 1pM- 10 uM, P>0.07, Graph 3a) was “insignificant effects”, the “effects on the resorption activity” value (rat osteoclasts [2]) was “insignificant effects” and the “kinetics of bone attachment to osteoclasts” value (chicken osteoclasts [3]; 10 nM) was “no significant effect”. The “concentration at which lamellipodia retracted” value (rat osteoclasts [4]; rat osteoclasts 1 day after isolation on glass) was 34 nM and the “concentration at which lamellipodia did not retract” value (rat osteoclasts [4]; rat osteoclasts, followed for up to 2 hr) was 3.4 nM.
In the case of “H-ECESGPCCRNCKFLKEGTICKRARGDDMDDYCNGKTCDCPRNPHKGPAT-OH (disulfide 2-11, 7-32, 8-37, 20-39 (inferred)) [Synthetic Echistatin]”, the “attachment of bone particles to osteoclasts” value (chicken osteoclasts [3]; 100 nM, up to 150 min) is reported as “significantly inhibited”.
Work on `CCCCC[C@H](O)/C=C/[C@H]1[C@H](O)CC(=O)[C@@H]1C/C=C\CCCC(=O)O` [prostaglandin E₂] yielded an IC50 (chicken osteoclasts [1]; Gallus gallus, Osteoclast, 24 h, Graph 2a, 1 day resorption assay, read-out: IC₅₀ of resorption) of 1000 nM.
